These results are taken from patent US10421740B2, “Pesticidally active heterocyclic derivatives with sulphur containing substituents” (SYNGENTA PARTICIPATIONS AG, priority 2016, dated 2019).

Series [1] has as its system Diabrotica balteata (Corn Root Worm). The experiment in a line: Activity against Diabrotica balteata (corn root worm). To be noted: 96 h, application rate 200 ppm, maize sprouts, L2 larvae, 4 days after infestation, read-out: effect in at least one of the two categories (mortality or growth inhibition). The series is classed as in vivo. The protocol:
Example B2: Activity Against Diabrotica balteata (Corn Root Worm)
Maize sprouts placed onto an agar layer in 24-well microtiter plates were treated with aqueous test solutions prepared from 10'000 ppm DMSO stock solutions by spraying. After drying, the plates were infested with L2 larvae (6 to 10 per well). The samples were assessed for mortality and growth inhibition in comparison to untreated samples 4 days after infestation.

In series [2] the test system is Myzus persicae (Green Peach Aphid). The experiment in a line: Activity against Myzus persicae (green peach aphid): feeding/contact activity. The class given is in vivo. The note with it: foliar, 144 h, application rate 200 ppm, sunflower leaf discs, aphid population of mixed ages, 6 days after infestation. The protocol: Example B3: Activity Against Myzus persicae (Green Peach Aphid): Feeding/Contact Activity
Sunflower leaf discs were placed onto agar in a 24-well microtiter plate and sprayed with aqueous test solutions prepared from 10'000 ppm DMSO stock solutions. After drying, the leaf discs were infested with an aphid population of mixed ages. The samples were assessed for mortality 6 days after infestation.

Series [3] shares this test system. The experiment in a line: Activity against Myzus persicae (green peach aphid): systemic activity. The note with it: 144 h, test rate 24 ppm, roots of pea seedlings in test solution, 6 days. The series is classed as in vivo. As to the method: Example B4: Activity Against Myzus persicae (Green Peach Aphid): Systemic Activity
Roots of pea seedlings infested with an aphid population of mixed ages were placed directly into aqueous test solutions prepared from 10'000 DMSO stock solutions. The samples were assessed for mortality 6 days after placing seedlings into test solutions.

The subject of series [4] is Plutella xylostella (Diamond Back Moth). Description: Activity against Plutella xylostella (diamond back moth). The class given is in vivo. The note with it: 120 h, application rate 200 ppm, artificial diet, L2 larvae, 5 days after infestation, read-out: effect in at least one of the two categories (mortality or growth inhibition). The protocol: Example B5: Activity Against Plutella xylostella (Diamond Back Moth)
24-well microtiter plates with artificial diet were treated with aqueous test solutions prepared from 10'000 ppm DMSO stock solutions by pipetting. After drying, the plates were infested with L2 larvae (10 to 15 per well). The samples were assessed for mortality and growth inhibition in comparison to untreated samples 5 days after infestation.

Series [5] has as its system Spodoptera littoralis (Egyptian Cotton Leaf Worm). The experiment in a line: Activity against Spodoptera littoralis (Egyptian cotton leaf worm), cotton leaf disc spray. To be noted: foliar, 72 h, application rate 200 ppm, cotton leaf discs, L1 larvae, 3 days after infestation. The series is classed as in vivo. As to the method:
Example B8: Activity Against Spodoptera littoralis (Egyptian Cotton Leaf Worm)
Cotton leaf discs were placed onto agar in 24-well microtiter plates and sprayed with aqueous test solutions prepared from 10'000 ppm DMSO stock solutions. After drying the leaf discs were infested with five L1 larvae. The samples were assessed for mortality, anti-feeding effect, and growth inhibition in comparison to untreated samples 3 days after infestation. Control of Spodoptera littoralis by a test sample is given when at least one of the categories mortality, anti-feedant effect, and growth inhibition is higher than the untreated sample.

The test system of series [6] is Euschistus heros (Neotropical Brown Stink Bug). The experiment in a line: Activity against Euschistus heros (neotropical brown stink bug). The series is classed as in vivo. The note with it: 120 h, application rate 200 ppm, soybean leaves, N2 nymphs, 5 days after infestation, read-out: effect in at least one of the two categories (mortality or growth inhibition). The protocol: Example B9: Activity Against Euschistus heros (Neotropical Brown Stink Bug)
Soybean leaves on agar in 24-well microtiter plates were sprayed with aqueous test solutions prepared from 10'000 ppm DMSO stock solutions. After drying the leaves were infested with N2 nymphs. The samples were assessed for mortality and growth inhibition in comparison to untreated samples 5 days after infestation.

For series [7], the system named is Bemisia tabaci (Cotton White Fly). The experiment in a line: Activity against Bemisia tabaci (cotton white fly): feeding/contact activity. The class given is in vivo. To be noted: foliar, 144 h, application rate 200 ppm, cotton leaf discs, adult white flies, 6 days after incubation. The protocol: Example B1: Activity Against Bemisia tabaci (Cotton White Fly): Feeding/Contact Activity
Cotton leaf discs were placed on agar in 24-well microtiter plates and sprayed with aqueous test solutions prepared from 10'000 ppm DMSO stock solutions. After drying the leaf discs were infested with adult white flies. The samples were checked for mortality 6 days after incubation.

With `CCS(=O)(=O)c1cc2ccccc2nc1-c1nnc(-c2cc(C(F)(F)F)ccn2)n1C` [Compound A3, 3-ethylsulfonyl-2-[4-methyl-5-[4-(trifluoromethyl)-2-pyridyl]-1,2,4-triazol-3-yl]quinoline], the percent effect (mortality or growth inhibition) at 200 ppm in series [1] is not below 80%. The mortality – broadly, the share of the test organisms that died – at 200 ppm in series [2] is not below 80%. The mortality at 24 ppm in series [3] is not below 80%. Further, in series [4], the percent control (mortality or growth inhibition) at 200 ppm is not below 80%. The molecule also returned a percent control (mortality, anti-feedant effect or growth inhibition) at 200 ppm in series [5] not below 80%.

For the molecule `CCS(=O)(=O)c1cc2ccccc2nc1-c1nnc(-c2cc(C(F)(F)F)ncn2)n1C` [Compound A4, 3-ethylsulfonyl-2-[4-methyl-5-[6-(trifluoromethyl)pyrimidin-4-yl]-1,2,4-triazol-3-yl]quinoline], the percent effect (mortality or growth inhibition) at 200 ppm in series [1] was not below 80%. The mortality at 200 ppm in series [2] is not below 80%. Further, in series [4], the percent control (mortality or growth inhibition) at 200 ppm was not below 80%.

The molecule `CCS(=O)(=O)c1cc2c(cc1-c1nnc(-c3ccc(C(F)(F)F)nc3)n1C)nc(C(F)(F)F)n2C` [Compound A5, 6-ethylsulfonyl-1-methyl-5-[4-methyl-5-[6-(trifluoromethyl)-3-pyridyl]-1,2,4-triazol-3-yl]-2-(trifluoromethyl)benzimidazole] came in with a mortality at 200 ppm in series [2] not below 80%. The molecule further yielded a mortality at 24 ppm in series [3] not below 80%. Moreover, the percent control (mortality, anti-feedant effect or growth inhibition) at 200 ppm in series [5] was not below 80%. Further, the effect (mortality or growth inhibition) at 200 ppm in series [6] is not below 80%.

As to `CCS(=O)(=O)c1cc2nc(C(F)(F)F)sc2cc1-c1nnc(-c2cc(C(F)(F)F)ccn2)n1C` [Compound A6, 5-ethylsulfonyl-6-[4-methyl-5-[4-(trifluoromethyl)-2-pyridyl]-1,2,4-triazol-3-yl]-2-(trifluoromethyl)-1,3-benzothiazole], the mortality at 200 ppm in series [7] is not below 80%. The percent effect (mortality or growth inhibition) at 200 ppm in series [1] was not below 80%. Besides, the percent control (mortality or growth inhibition) at 200 ppm in series [4] is not below 80%. The percent control (mortality, anti-feedant effect or growth inhibition) at 200 ppm in series [5] is not below 80%.

As to `CCSc1cc2sc(C(F)(F)F)nc2cc1-c1nnc(-c2cc(C(F)(F)F)ccn2)n1C` [Compound A7, 6-ethylsulfanyl-5-[4-methyl-5-[4-(trifluoromethyl)-2-pyridyl]-1,2,4-triazol-3-yl]-2-(trifluoromethyl)-1,3-benzothiazole], the percent effect (mortality or growth inhibition) at 200 ppm in series [1] was not below 80%. In series [5], the percent control (mortality, anti-feedant effect or growth inhibition) at 200 ppm is not below 80%.

For `CCS(=O)(=O)c1cc2c(nnn2C)nc1-c1nnc(-c2cc(C(F)(F)F)ccn2)n1C` [Compound A9, 6-ethylsulfonyl-1-methyl-5-[4-methyl-5-[4-(trifluoromethyl)-2-pyridyl]-1,2,4-triazol-3-yl]triazolo[4,5-b]pyridine], the mortality at 200 ppm in series [7] and in series [2] was not below 80% throughout. Further, in series [1], the percent effect (mortality or growth inhibition) at 200 ppm is not below 80%. For the same molecule, in series [4], the percent control (mortality or growth inhibition) at 200 ppm was not below 80%. The percent control (mortality, anti-feedant effect or growth inhibition) at 200 ppm in series [5] is not below 80%. Further, the effect (mortality or growth inhibition) at 200 ppm in series [6] is not below 80%.

As for `CCS(=O)(=O)c1cc2nnn(C)c2nc1-c1nnc(-c2cc(C(F)(F)F)ccn2)n1C` [Compound A10, 6-ethylsulfonyl-3-methyl-5-[4-methyl-5-[4-(trifluoromethyl)-2-pyridyl]-1,2,4-triazol-3-yl]triazolo[4,5-b]pyridine], the mortality at 200 ppm in series [7] and in series [2] was not below 80% throughout. For the same molecule, the percent effect (mortality or growth inhibition) at 200 ppm in series [1] was not below 80%. In series [3], this molecule showed a mortality at 24 ppm not below 80%. For the same molecule, in series [4], the percent control (mortality or growth inhibition) at 200 ppm was not below 80%. The molecule also displayed a percent control (mortality, anti-feedant effect or growth inhibition) at 200 ppm in series [5] not below 80%.

Turning to `CCS(=O)(=O)c1cc2c(nnn2COC)nc1-c1nnc(-c2cc(C(F)(F)F)ccn2)n1C` [Compound A11, 6-ethylsulfonyl-1-(methoxymethyl)-5-[4-methyl-5-[4-(trifluoromethyl)-2-pyridyl]-1,2,4-triazol-3-yl]triazolo[4,5-b]pyridine], the melting point – broadly, the temperature of the solid-liquid transition – was in the range of 176 to 178 °C.

On to `CCS(=O)(=O)c1cc2[nH]nnc2nc1-c1nnc(-c2cc(C(F)(F)F)ccn2)n1C` [Compound A12, 6-ethylsulfonyl-5-[4-methyl-5-[4-(trifluoromethyl)-2-pyridyl]-1,2,4-triazol-3-yl]-1H-triazolo[4,5-b]pyridine], for which the melting point lay in the range of 303 to 305 °C.

Consider `CCn1nnc2nc(-c3nnc(-c4cc(C(F)(F)F)ccn4)n3C)c(S(=O)(=O)CC)cc21` [Compound A13, 1-ethyl-6-ethylsulfonyl-5-[4-methyl-5-[4-(trifluoromethyl)-2-pyridyl]-1,2,4-triazol-3-yl]triazolo[4,5-b]pyridine], for which the mortality at 200 ppm in series [2] is not below 80%. Also, the mortality at 24 ppm in series [3] is not below 80%. The percent control (mortality or growth inhibition) at 200 ppm in series [4] is not below 80%. Moreover, the effect (mortality or growth inhibition) at 200 ppm in series [6] was not below 80%.

Regarding `CCS(=O)(=O)c1cc2c(nnn2CCF)nc1-c1nnc(-c2cc(C(F)(F)F)ccn2)n1C` [Compound A14, 6-ethylsulfonyl-1-(2-fluoroethyl)-5-[4-methyl-5-[4-(trifluoromethyl)-2-pyridyl]-1,2,4-triazol-3-yl]triazolo[4,5-b]pyridine], the mortality at 200 ppm in series [2] is not below 80%. In addition, in series [3], the mortality at 24 ppm was not below 80%. Moreover, in series [4], the percent control (mortality or growth inhibition) at 200 ppm was not below 80%. The effect (mortality or growth inhibition) at 200 ppm in series [6] is not below 80%.

Take `CCS(=O)(=O)c1cc2nnn(CCF)c2nc1-c1nnc(-c2cc(C(F)(F)F)ccn2)n1C` [Compound A15, 6-ethylsulfonyl-3-(2-fluoroethyl)-5-[4-methyl-5-[4-(trifluoromethyl)-2-pyridyl]-1,2,4-triazol-3-yl]triazolo[4,5-b]pyridine]: in series [3], the mortality at 24 ppm is not below 80%.

For `CCS(=O)(=O)c1cc2nn(COC)nc2nc1-c1nnc(-c2cc(C(F)(F)F)ccn2)n1C` [Compound A17, 6-ethylsulfonyl-2-(methoxymethyl)-5-[4-methyl-5-[4-(trifluoromethyl)-2-pyridyl]-1,2,4-triazol-3-yl]triazolo[4,5-b]pyridine], the mortality at 24 ppm in series [3] is not below 80%.

`CCS(=O)(=O)c1cc2nn(C)nc2nc1-c1nnc(-c2cc(C(F)(F)F)ccn2)n1C` [Compound A18, 6-ethylsulfonyl-2-methyl-5-[4-methyl-5-[4-(trifluoromethyl)-2-pyridyl]-1,2,4-triazol-3-yl]triazolo[4,5-b]pyridine]: the mortality at 200 ppm in series [2] is not below 80%. This molecule yielded a mortality at 24 ppm in series [3] not below 80%. Besides, the effect (mortality or growth inhibition) at 200 ppm in series [6] is not below 80%.

On to `CCS(=O)(=O)c1cc2c(nc1-c1nnc(-c3cc(C(F)(F)F)ccn3)n1C)CC(C)(C)O2` [Compound A19, 6-ethylsulfonyl-2,2-dimethyl-5-[4-methyl-5-[4-(trifluoromethyl)-2-pyridyl]-1,2,4-triazol-3-yl]-3H-furo[3,2-b]pyridine], for which the percent control (mortality or growth inhibition) at 200 ppm in series [4] is not below 80%. In addition, the percent control (mortality, anti-feedant effect or growth inhibition) at 200 ppm in series [5] was not below 80%.

Take `CCS(=O)(=O)c1cc2c(nc1-c1nnc(-c3cc(C(F)(F)F)ncn3)n1C)CC(C)(C)O2` [Compound A20, 6-ethylsulfonyl-2,2-dimethyl-5-[4-methyl-5-[6-(trifluoromethyl)pyrimidin-4-yl]-1,2,4-triazol-3-yl]-3H-furo[3,2-b]pyridine]: the percent effect (mortality or growth inhibition) at 200 ppm in series [1] was not below 80%. This molecule also showed a mortality at 24 ppm in series [3] not below 80%. The molecule further gave a percent control (mortality, anti-feedant effect or growth inhibition) at 200 ppm in series [5] not below 80%. The effect (mortality or growth inhibition) at 200 ppm in series [6] was not below 80%.
